US9067871B2, “Aminotetraline derivatives, pharmaceutical compositions containing them, and their use in therapy” (ABBVIE DEUTSCHLAND GMBH & CO KG, priority 2009, dated 2015)
Structures can show the parent of a compound that is named as a salt.

Biological target: human GlyT1c transporter (Homo sapiens (Human), UniProt P48067)
Assay: Radioligand binding assay using recombinant CHO cell membranes expressing human GlyT1
Conditions: human GlyT1c-expressing CHO cell membranes; read-out: radioligand binding Kiapp
Text: 2. Radioligand binding assays using recombinant CHO cell membranes expressing human GlyT1: […]

Chain of human GlyT1c transporter (P48067 whole entry): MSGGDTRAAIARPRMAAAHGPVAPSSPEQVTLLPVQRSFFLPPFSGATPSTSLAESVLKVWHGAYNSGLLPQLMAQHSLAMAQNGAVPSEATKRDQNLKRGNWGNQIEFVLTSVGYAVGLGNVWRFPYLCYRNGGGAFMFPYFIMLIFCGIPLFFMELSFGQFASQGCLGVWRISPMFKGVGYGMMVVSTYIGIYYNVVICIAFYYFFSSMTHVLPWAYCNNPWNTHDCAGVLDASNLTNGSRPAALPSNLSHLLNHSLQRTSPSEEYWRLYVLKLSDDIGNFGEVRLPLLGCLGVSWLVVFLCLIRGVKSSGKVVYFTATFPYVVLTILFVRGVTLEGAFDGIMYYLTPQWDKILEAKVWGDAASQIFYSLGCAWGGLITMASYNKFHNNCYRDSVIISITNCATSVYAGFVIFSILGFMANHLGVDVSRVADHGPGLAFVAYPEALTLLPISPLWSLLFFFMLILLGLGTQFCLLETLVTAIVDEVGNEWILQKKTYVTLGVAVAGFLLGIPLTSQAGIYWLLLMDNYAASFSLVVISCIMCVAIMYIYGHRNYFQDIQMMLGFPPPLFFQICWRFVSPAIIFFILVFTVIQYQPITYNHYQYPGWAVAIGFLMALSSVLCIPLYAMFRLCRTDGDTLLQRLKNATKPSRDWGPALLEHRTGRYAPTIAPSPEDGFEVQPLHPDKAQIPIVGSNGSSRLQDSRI

Ki [nM]	Structure (SMILES)
≤ 100	CN(CCOc1ccc2c(c1)C(Cc1ccc(Cl)c(Cl)c1)C(N1CCCC1)CC2)S(=O)(=O)c1cnn(C)c1 (centres unmarked) [Example 89, 1-Methyl-1H-pyrazole-4-sulfonic acid {2-[8-(3,4-dichloro-benzyl)-7-pyrrolidin-1-yl-5,6,7,8-tetrahydro-naphthalen-2-yloxy]-ethyl}-methyl-amide hydrochloride]
≤ 10	Cn1cnc(S(=O)(=O)NCc2ccc3c(c2)C(Cc2ccccc2)C(N)CC3)c1 (centres unmarked) [Example 173, N-[(7-Amino-8-benzyl-5,6,7,8-tetrahydronaphthalen-2-yl)methyl]-1-methyl-1H-imidazole-4-sulfonamide hydrochloride]
> 10000	CCOC(=O)NC1CCc2ccc(OCC3CN(S(=O)(=O)CC4CC4)C3)cc2C1Cc1cccc(Cl)c1 (centres unmarked) [Example 289, [1-(3-Chloro-benzyl)-7-(1-cyclopropylmethanesulfonyl-azetidin-3-ylmethoxy)-1,2,3,4-tetrahydro-naphthalen-2-yl]-carbamic acid ethyl ester]
≤ 10	NC1CCc2ccc(OCCNS(=O)(=O)CC3CC3)cc2C1Cc1ccccc1 (centres unmarked) [Example 121, N-(2-{[7-Amino-8-benzyl-5,6,7,8-tetrahydronaphthalen-2-yl]oxy}ethyl)-1-cyclopropylmethanesulfonamide hydrochloride]
≤ 10	CN(CCCc1ccc2c(c1)C(Cc1cccc(F)c1)C(N)CC2)S(=O)(=O)CC1CC1 (centres unmarked) [Example 230, N-{3-[7-Amino-8-(3-fluorobenzyl)-5,6,7,8-tetrahydronaphthalen-2-yl]propyl}-1-cyclopropylN-methylmethanesulfonamide hydrochloride]
≤ 10	CNC1CCc2ccc(OCCNS(=O)(=O)c3ccn(C)c3)cc2C1Cc1cc(F)cc(F)c1 (centres unmarked) [Example 246, N-(2-{[8-(3,5-Difluorobenzyl)-7-(methylamino)-5,6,7,8-tetrahydronaphthalen-2-yl]oxy}ethyl)-1-methyl-1H-pyrrole-3-sulfonamide hydrochloride]
≤ 10	NC1CCc2ccc(OCCNS(=O)(=O)CC3CC3)cc2C1Cc1cccc(F)c1 (centres unmarked) [Example 235, N-(2-{[7-Amino-8-(3-fluorobenzyl)-5,6,7,8-tetrahydronaphthalen-2-yl]oxy}ethyl)-1-cyclopropylmethanesulfonamide hydrochloride]
≤ 100	CCCS(=O)(=O)N(C)CCCc1ccc2c(c1)C(Cc1cccc(F)c1)C(N)CC2 (centres unmarked) [Example 227, N-{3-[7-Amino-8-(3-fluorobenzyl)-5,6,7,8-tetrahydronaphthalen-2-yl]propyl}-N-methylpropane-1-sulfonamide hydrochloride]
≤ 1000	O=S(=O)(CC1CC1)NCCCc1ccc2c(c1)C(Cc1ccccc1)C(N1CCCC1)CC2 (centres unmarked) [Example 266, N-{3-[8-Benzyl-7-(pyrrolidin-1-yl)-5,6,7,8-tetrahydronaphthalen-2-yl]propyl}-1-cyclopropylmethanesulfonamide hydrochloride]
≤ 100	CCCS(=O)(=O)NCCCc1ccc2c(c1)C(Cc1ccc(F)c(F)c1)C(NCC)CC2 (centres unmarked) [Example 225, N-{3-[8-(3,4-Difluorobenzyl)-7-(ethylamino)-5,6,7,8-tetrahydronaphthalen-2-yl]propyl}propane-1-sulfonamide trifluoroacetate]
≤ 1000	NC1CCc2ccc(CNS(=O)(=O)C3CCC3)cc2C1Cc1ccc(F)c(F)c1 (centres unmarked) [Example 186, N-{[7-Amino-8-(3,4-difluorobenzyl)-5,6,7,8-tetrahydronaphthalen-2-yl]methyl}cyclobutanesulfonamide hydrochloride]
≤ 100	Cn1cnc(S(=O)(=O)NCc2ccc3c(c2)C(Cc2ccccc2)C(N2CCOCC2)CC3)c1 (centres unmarked) [Example 257, N-{[8-Benzyl-7-(morpholin-4-yl)-5,6,7,8-tetrahydronaphthalen-2-yl]methyl}-1-methyl-1H-imidazole-4-sulfonamide]
≤ 100	Cn1cc(S(=O)(=O)NCc2ccc3c(c2)C(Cc2ccccc2)C(N)CC3)c(C(F)(F)F)n1 (centres unmarked) [Example 182, N-{[7-Amino-8-benzyl-5,6,7,8-tetrahydronaphthalen-2-yl]methyl}-1-methyl-3-(trifluoromethyl)-1H-pyrazole-4-sulfonamide hydrochloride]
≤ 100	Cn1ccc(S(=O)(=O)NCCOc2ccc3c(c2)C(Cc2cccc(F)c2)C(N2CCCC2)CC3)c1 (centres unmarked) [Example 267, N-(2-{[8-(3-Fluorobenzyl)-7-(pyrrolidin-1-yl)-5,6,7,8-tetrahydronaphthalen-2-yl]oxy}ethyl)-1-methyl-1H-pyrrole-3-sulfonamide]
≤ 100	Cn1cnc(S(=O)(=O)NCc2ccc3c(c2)C(Cc2ccccc2)C(N2CCCC2)CC3)c1 (centres unmarked) [Example 262, N-{[8-Benzyl-7-(pyrrolidin-1-yl)-5,6,7,8-tetrahydronaphthalen-2-yl]methyl}-1-methyl-1H-imidazole-4-sulfonamide]
≤ 1000	CCOCCS(=O)(=O)NCCOc1ccc2c(c1)C(Cc1ccc(Cl)c(Cl)c1)C(N)CC2 (centres unmarked) [Example 93, 2-Ethoxy-ethanesulfonic acid {2-[7-amino-8-(3,4-dichloro-benzyl)-5,6,7,8-tetrahydronaphthalen-2-yloxy]-ethyl}-amide hydrochloride]
≤ 100	Cn1cc(S(=O)(=O)NCc2ccc3c(c2)C(Cc2ccccc2)C(N2CCOCC2)CC3)cn1 (centres unmarked) [Example 258, N-{[8-Benzyl-7-(morpholin-4-yl)-5,6,7,8-tetrahydronaphthalen-2-yl]methyl}-1-methyl-1H-pyrazole-4-sulfonamide]
≤ 10	Cn1cnc(S(=O)(=O)NCCOc2ccc3c(c2)C(Cc2ccccc2)C(N2CCC2)CC3)c1 (centres unmarked) [Example 145, N-(2-{[7-(Azetidin-1-yl)-8-benzyl-5,6,7,8-tetrahydronaphthalen-2-yl]oxy}ethyl)-1-methyl-1H-imidazole-4-sulfonamide]
≤ 10	CNC1CCc2ccc(OCCNS(=O)(=O)CC3CC3)cc2C1Cc1cc(F)cc(F)c1 (centres unmarked) [Example 243, 1-Cyclopropyl-N-(2-{[8-(3,5-difluorobenzyl)-7-(methylamino)-5,6,7,8-tetrahydronaphthalen-2-yl]oxy}ethylmethanesulfonamide hydrochloride]
≤ 10	Cn1cnc(S(=O)(=O)NCCOc2ccc3c(c2)C(Cc2cccc(C(F)(F)F)c2)C(N)CC3)c1 (centres unmarked) [Example 165, 1-Methyl-1H-imidazole-4-sulfonic acid {2-[7-amino-8-(3-trifluoromethyl-benzyl)-5,6,7,8-tetrahydro-naphthalen-2-yloxy]-ethyl}-amide hydrochloride]
≤ 10	Cn1ccc(S(=O)(=O)NCCOc2ccc3c(c2)C(Cc2cccc(F)c2)C(N2CCC2)CC3)c1 (centres unmarked) [Example 269, 1-Methyl-1H-pyrrole-3-sulfonic acid {2-[7-azetidin-1-yl-8-(3-fluoro-benzyl)-5,6,7,8-tetrahydro-naphthalen-2-yloxy]-ethyl}-amide]
≤ 100	O=S(=O)(CC1CC1)NCCOc1ccc2c(c1)C(Cc1ccccc1)C(N1CCCC1)CC2 (centres unmarked) [Example 133, N-(2-{[8-Benzyl-7-(pyrrolidin-1-yl)-5,6,7,8-tetrahydronaphthalen-2-yl]oxy}ethyl)-1-cyclopropylmethanesulfonamide hydrochloride]
≤ 10	Cn1cc(S(=O)(=O)NCc2ccc3c(c2)C(Cc2ccccc2)C(N)CC3)cn1 (centres unmarked) [Example 172, N-[(7-Amino-8-benzyl-5,6,7,8-tetrahydronaphthalen-2-yl)methyl]-1-methyl-1H-pyrazole-4-sulfonamide hydrochloride]
